Laboratory results from US20050239854A1, “Body weight gain inhibitors” (priority 1999, published 2005).

Experiment: Body weight gain-reducing action in KKAy mice
Details: female KKAy mice; for % control (blood glucose level): in admixture with the feed for 4 days, blood glucose relative to own control group = 100

Cc1oc(-c2ccccc2)nc1COc1ccc(CO/N=C(\CCC(=O)O)c2ccccc2)cc1 [compound of Production Example 3, E-4-[4-(5-methyl-2-phenyl-4-oxazolylmethoxy)benzyloxyimino]-4-phenylbutyric acid]
% control (blood glucose level): 50%

CN(CCOc1ccc(CC2SC(=O)NC2=O)cc1)c1ccccn1 (stereo not drawn) [rosiglitazone]
effect on body weight (in words) (4 days, dose that reduced the blood glucose level to 50-58%): significantly increased the body weight | % control (blood glucose level): 58%
